Experimental findings from patent US8536202B2, “Triazole-substituted anthranilamides as pesticides” (Bayer Cropscience AG, priority 2010, dated 2013) are described below.

Data set [1] in a line: log P determination by HPLC on reversed-phase columns (EEC Directive 79/831 Annex V.A8). The data set is classed as physicochemical. Conditions: pH 2.7. The protocol: Determination by LC-MS in the acidic range takes place at a pH of 2.7 using 0.1% aqueous formic acid and acetonitrile (containing 0.1% formic acid) as eluents, with a linear gradient from 10% acetonitrile to 95% acetonitrile.
Calibration was carried out using unbranched alkan-2-ones (having 3 to 16 carbon atoms) with known log P values (the log P values are determined from the retention times by linear interpolation between two successive alkanones).

The subject of data set [2] is caterpillars of the armyworm (Spodoptera frugiperda). The experiment in a line: Spodoptera frugiperda test (SPODFR spray treatment). The data set is classed as in vivo. The conditions noted are these: 168 h, read-out: activity in %. The protocol:
Solvents: 78.0 parts by weight of acetone • • 1.5 parts by weight of dimethylformamide
Emulsifier: 0.5 part by weight of alkylaryl polyglycol ether
An appropriate preparation of active compound is prepared by mixing 1 part by weight of active compound with the stated amounts of solvent and emulsifier and diluting the concentrate with emulsifier-containing water to the desired concentration.
Leaf discs of maize (Zea mays) are sprayed with a preparation of active compound at the desired concentration and, after drying, are populated with caterpillars of the armyworm (Spodoptera frugiperda).
After 7 days, the activity in % is ascertained. Here, 100% means that all of the caterpillars have been killed; 0% means that no caterpillar has been killed.

Where [3] appears, read: reversed-phase C18 HPLC column, HPLC on reversed-phase columns (C 18), EEC Directive 79/831 Annex V.A8, read-out: logP.
Setting [4] is: HPLC on reversed-phase columns (C 18), EEC Directive 79/831 Annex V.A8, read-out: logP.

Structures are written as SMILES. Read-outs that look alike come from different tables or passages of the source.

`CNC(=O)c1cc(Cl)cc(C)c1NC(=O)c1cc(Cn2cc(C3CC3)nn2)nn1-c1ncccc1Cl` [Example 13] returned a chromatographic logP in data set [1] of 2.14.
Regarding `CNC(=O)c1cc(Cl)cc(C)c1NC(=O)c1cc(Cn2nc3ccccc3n2)nn1-c1ncccc1Cl` [Example 67], the pest or weed control at 100 g/ha in data set [2] (100 g/ha, after 7 days) amounted to 100%. In data set [1], this molecule came in with a chromatographic logP of 2.75.
In turn, `Cc1cc(Cl)cc(C(=O)NC(C)(C)C)c1NC(=O)c1cc(Cn2ncc(C(C)(C)C)n2)nn1-c1ncccc1Cl` [Example 48] displayed a chromatographic logP in data set [1] of 4.25.
On the same count and under the same terms, for `CNC(=O)c1cc(C#N)cc(C)c1NC(=O)c1cc(Cn2nc3c(Cl)c(Cl)c(Cl)c(Cl)c3n2)nn1-c1ncccc1Cl` [Example 93] the value was 4.24.
`Cc1cc(C#N)cc(C(=O)NC(C)(C)C)c1NC(=O)c1cc(Cn2ncc(C(F)(F)F)n2)nn1-c1ncccc1Br` [Example 10]: in data set [2] (100 g/ha, after 7 days), the pest or weed control at 100 g/ha came out at 100%. In addition, the chromatographic logP in data set [1] (setting [3]) was 3.04.
With `CNC(=O)c1cc(Cl)cc(C)c1NC(=O)c1cc(Cn2nnc3c(Cl)c(Cl)c(Cl)c(Cl)c32)nn1-c1ncccc1Cl` [Example 84], in data set [2] (100 g/ha, after 7 days), the pest or weed control at 100 g/ha is 100%. In addition, in data set [1], the chromatographic logP came to 4.19.
On to `CNC(=O)c1cc(Cl)cc(C)c1NC(=O)c1cc(Cn2ncc(C(C)C)n2)nn1-c1ncccc1Cl` [Example 22], for which the pest or weed control at 100 g/ha in data set [2] (100 g/ha, after 7 days) amounted to 100%. For the same molecule, in data set [1], the chromatographic logP turned out to be 2.85.
Regarding `Cc1cc(C#N)cc(C(=O)NC(C)(C)C)c1NC(=O)c1cc(Cn2ncc(C(C)(C)C)n2)nn1-c1ncccc1Cl` [Example 60], in data set [1], the chromatographic logP amounted to 3.74.
Same read-out and setting: for `Cc1cc(Br)cc(C(=O)NC(C)C2CC2)c1NC(=O)c1cc(Cn2ncc(C(F)(F)F)n2)nn1-c1ncccc1Cl` (stereo not shown) [Example 173] the value was 3.87.
On to `Cc1cc(C#N)cc(C(=O)NC(C)(C)C)c1NC(=O)c1cc(Cn2cc(-c3ccccc3Cl)nn2)nn1-c1ncccc1Cl` [Example 56], for which the pest or weed control at 100 g/ha in data set [2] (100 g/ha, after 7 days) was 83%. In data set [1], the chromatographic logP worked out at 3.45.
The corresponding values for `CNC(=O)c1cc(C#N)cc(C)c1NC(=O)c1cc(Cn2nnc3cc(Cl)c(Cl)cc32)nn1-c1ncccc1Cl` [Example 80] are 100% and 2.96.
In the case of `CCNC(=O)c1cc(C#N)cc(C)c1NC(=O)c1cc(Cn2cc(C(F)(F)C(F)(F)C(F)(F)F)nn2)nn1-c1ncccc1Cl` [Example 330], in data set [1] (setting [4]), the chromatographic logP stood at 3.24.
Regarding `Cc1cc(C#N)cc(C(=O)NC(C)(C)C)c1NC(=O)c1cc(Cn2cc(C(F)(F)F)nn2)nn1-c1ccccc1Cl` [Example 292], in data set [2] (100 g/ha, after 7 days), the pest or weed control at 100 g/ha is 100%. Besides, the chromatographic logP in data set [1] (setting [3]) turned out to be 3.48.
Take `CNC(=O)c1cc(C#N)cc(C)c1NC(=O)c1cc(Cn2nc3ccc(F)cc3n2)nn1-c1ncccc1Cl` [Example 83]: the pest or weed control at 100 g/ha in data set [2] (100 g/ha, after 7 days) came to 100%. In addition, in data set [1], the chromatographic logP was determined as 2.55.
`CNC(=O)c1cc(C#N)cc(C)c1NC(=O)c1cc(Cn2cc(-c3ccc(F)cc3)nn2)nn1-c1ncccc1Cl` [Example 32]: the pest or weed control at 100 g/ha in data set [2] (100 g/ha, after 7 days) amounted to 100%. Further, the chromatographic logP in data set [1] stood at 2.41.
For the molecule `Cc1cc(Cl)cc(C(=O)NC(C)(C)C)c1NC(=O)c1cc(Cn2cc(C(F)(F)F)nn2)nn1-c1ncccc1Cl` [Example 191], the pest or weed control at 100 g/ha in data set [2] (100 g/ha, after 7 days) was 100%. For the same molecule, in data set [1], the chromatographic logP stood at 3.44.
`Cc1cc(C#N)cc(C(=O)NC(C)(C)C)c1NC(=O)c1cc(Cn2nnc3c(Cl)c(Cl)c(Cl)c(Cl)c32)nn1-c1ncccc1Cl` [Example 104] had a chromatographic logP in data set [1] of 4.64.
Same read-out and setting: for `Cc1cc(Cl)cc(C(=O)NC2CC2)c1NC(=O)c1cc(Cn2cc(C(F)(F)F)nn2)nn1-c1ncccc1Cl` [Example 188] the value was 2.82.
Take `CNC(=O)c1cc(Cl)cc(C)c1NC(=O)c1cc(Cn2nnc3ccccc32)nn1-c1ncccc1Cl` [Example 66]: in data set [2] (100 g/ha, after 7 days), the pest or weed control at 100 g/ha came to 100%. The molecule further returned a chromatographic logP in data set [1] of 2.38.
The corresponding values for `Cc1cc(C#N)cc(C(=O)NC(C)(C)C)c1NC(=O)c1cc(Cn2nnc3cc([N+](=O)[O-])ccc32)nn1-c1ncccc1Cl` [Example 115] are 100% and 3.03.
Taken in the same sequence, the figures for `CC(C)NC(=O)c1cc(Cl)cc(Cl)c1NC(=O)c1cc(Cn2cc(C(F)(F)F)nn2)nn1-c1ncccc1Cl` [Example 200] were 100% and 3.1.
In data set [1], `Cc1cc(C#N)cc(C(=O)NC(C)(C)C)c1NC(=O)c1cc(Cn2cc(C(C)(C)C)nn2)nn1-c1ncccc1Cl` [Example 52] returned a chromatographic logP of 3.02.
Consider `Cc1cc(Cl)cc(C(=O)NC(C)C)c1NC(=O)c1cc(Cn2ccnn2)nn1-c1ncccc1Cl` [Example 116], for which the chromatographic logP in data set [1] came out at 2.12.
`Cc1cc(C#N)cc(C(=O)NC(C)(C)C)c1NC(=O)c1cc(Cn2cc(C(C)C)nn2)nn1-c1ncccc1Cl` [Example 51]: the chromatographic logP in data set [1] came out at 2.74.
In turn, `CNC(=O)c1cc(Cl)cc(C)c1NC(=O)c1cc(Cn2nnc3cc(Cl)c(Cl)cc32)nn1-c1ncccc1Cl` [Example 76] showed a chromatographic logP in data set [1] of 3.33.
Regarding `Cc1cc(F)cc(C(=O)NC(C)(C)C)c1NC(=O)c1cc(Cn2ncc(C(F)(F)F)n2)nn1-c1ncccc1Cl` [Example 171], in data set [2] (100 g/ha, after 7 days), the pest or weed control at 100 g/ha came to 100%. In data set [1], this molecule showed a chromatographic logP of 4.02.
`Cc1cc(Cl)cc(C(=O)NC(C)(C)C)c1NC(=O)c1cc(Cn2ncc(C(C)C)n2)nn1-c1ncccc1Cl` [Example 47]: in data set [1], the chromatographic logP was 3.86.
For `CNC(=O)c1cc(C#N)cc(C)c1NC(=O)c1cc(Cn2cc(-c3ccccc3Cl)nn2)nn1-c1ncccc1Cl` [Example 35], the pest or weed control at 100 g/ha in data set [2] (100 g/ha, after 7 days) turned out to be 100%. Also, the chromatographic logP in data set [1] turned out to be 2.63.
The corresponding values for `CNC(=O)c1cc(Cl)cc(C)c1NC(=O)c1cc(Cn2nnc3cc(C)ccc32)nn1-c1ncccc1Cl` [Example 69] are 100% and 2.63.
`CNC(=O)c1cc(Cl)cc(C)c1NC(=O)c1cc(Cn2cc(C(C)(C)C)nn2)nn1-c1ncccc1Cl` [Example 15] showed a chromatographic logP in data set [1] of 2.53.
With `CNC(=O)c1cc(C#N)cc(C)c1NC(=O)c1cc(Cn2nnc3cc([N+](=O)[O-])ccc32)nn1-c1ncccc1Cl` [Example 103], in data set [2] (100 g/ha, after 7 days), the pest or weed control at 100 g/ha is 100%. For the same molecule, the chromatographic logP in data set [1] came out at 2.34.
Molecule `Cc1cc(Cl)cc(C(=O)NC(C)(C)C)c1NC(=O)c1cc(Cn2ncc(-c3ccc(Cl)cc3)n2)nn1-c1ncccc1Cl` [Example 49] came in with a chromatographic logP in data set [1] of 4.58.
On to `Cc1cc(C#N)cc(C(=O)NC(C)(C)C)c1NC(=O)c1cc(Cn2nnc3cc(Br)ccc32)nn1-c1ncccc1Cl` [Example 106], for which, in data set [2] (100 g/ha, after 7 days), the pest or weed control at 100 g/ha is 100%. This molecule had a chromatographic logP in data set [1] of 3.31.
In turn, `Cc1cc(C#N)cc(C(=O)NC(C)(C)C)c1NC(=O)c1cc(Cn2ncc(C(C)C)n2)nn1-c1ncccc1Cl` [Example 59] registered a chromatographic logP in data set [1] of 3.38.
Regarding `CNC(=O)c1cc(Cl)cc(C)c1NC(=O)c1cc(Cn2nnc3ccc(F)cc32)nn1-c1ncccc1Cl` [Example 78], the pest or weed control at 100 g/ha in data set [2] (100 g/ha, after 7 days) was determined as 100%. Besides, the chromatographic logP in data set [1] was found to be 2.57.
Taken in the same sequence, the figures for `Cc1cc(C#N)cc(C(=O)NC(C)(C)C)c1NC(=O)c1cc(Cn2ncc(C3CC3)n2)nn1-c1ncccc1Cl` [Example 58] were 100% and 3.12.
Consider `Cc1cc(Cl)cc(C(=O)NC(C)(C)C)c1NC(=O)c1cc(Cn2ncc(C(F)(F)C(F)(F)C(F)(F)F)n2)nn1-c1ncccc1Cl` [Example 374], for which, in data set [2], the pest or weed control at 100 g/ha came to 100%. Also, in data set [1] (setting [4]), the chromatographic logP turned out to be 4.65.
As to `O=C(NC1CC1)c1cc(Cl)cc(Cl)c1NC(=O)c1cc(Cn2cc(C(F)(F)F)nn2)nn1-c1ncccc1Cl` [Example 199], the pest or weed control at 100 g/ha in data set [2] (100 g/ha, after 7 days) stood at 100%. For the same molecule, in data set [1], the chromatographic logP is 2.89.
In the case of `Cc1cc(C#N)cc(C(=O)NC(C)(C)C)c1NC(=O)c1cc(Cn2nc3c(Cl)c(Cl)c(Cl)c(Cl)c3n2)nn1-c1ncccc1Cl` [Example 105], the chromatographic logP in data set [1] amounted to 5.13.
On the same count and under the same terms, for `CNC(=O)c1cc(Cl)cc(C)c1NC(=O)c1cc(Cn2nc3ccc(C)cc3n2)nn1-c1ncccc1Cl` [Example 73] the value was 3.05; for `Cc1cc(C#N)cc(C(=O)NC2CC2)c1NC(=O)c1cc(Cn2cc(C(F)(F)F)nn2)nn1-c1ncccc1Cl` [Example 179], 2.5.
Turning to `CNC(=O)c1cc(Cl)cc(C)c1NC(=O)c1cc(Cn2nnc3cc(Cl)ccc32)nn1-c1ncccc1Cl` [Example 68], in data set [2] (100 g/ha, after 7 days), the pest or weed control at 100 g/ha turned out to be 100%. The molecule further displayed a chromatographic logP in data set [1] of 2.9.
`CNC(=O)c1cc(Cl)cc(C)c1NC(=O)c1cc(Cn2ncc(C(C)(C)C)n2)nn1-c1ncccc1Cl` [Example 23]: the pest or weed control at 100 g/ha in data set [2] (100 g/ha, after 7 days) came to 83%. The same molecule displayed a chromatographic logP in data set [1] of 3.2.
As to `CNC(=O)c1cc(Cl)cc(C)c1NC(=O)c1cc(Cn2nc3c(Cl)c(Cl)c(Cl)c(Cl)c3n2)nn1-c1ncccc1Cl` [Example 85], in data set [1], the chromatographic logP amounted to 4.66.
Turning to `CNC(=O)c1cc(C#N)cc(C)c1NC(=O)c1cc(Cn2nnc3ccc(F)cc32)nn1-c1ncccc1Cl` [Example 82], in data set [2] (100 g/ha, after 7 days), the pest or weed control at 100 g/ha was 100%. The chromatographic logP in data set [1] is 2.24.
